The values that follow come from paper PMC9936582, “Sulfamate Acetamides as Self-Immolative Electrophiles for Covalent Ligand-Directed Release Chemistry” (Journal of the American Chemical Society, 2023).

pKi: −log10 of the molar value.

One data set relates to Mino cells. Briefly: In situ proteomic labeling with alkyne probes, in-gel fluorescence. To be noted: 2 h, TAMRA-azide CuAAC. The format is cell-based. The text has this: To assess proteomic selectivity in cells, we have synthesized two sulfamate acetamides (2a and 2b) and a chloroacetamide (2c) with an alkyne functionality (Figure 2A and Figure S8). We treated Mino cells for two hours with either DMSO or 2a–2c. We then lysed the cells, labeled the alkynes via copper-catalyzed “click chemistry” (CuAAC) with TAMRA-azide, and imaged the adducts via in-gel fluorescence (Figure 2C). Similar to their reactivity pattern in the GSH reactivity assay, these compounds labeled various amounts of proteins under cellular conditions.
Mino cells were cultured in RPMI-medium supplemented with 15% FBS and 1% p/s at 37 °C and 5% CO2. […] The cells were lysed with RIPA buffer (Sigma, R0278), and protein concentration was determined using BCA protein assay (Thermo Fisher Scientific, 23225). Lysates were then diluted to 2 mg/mL in PBS. Lysates were clicked to TAMRA-azide (Lumiprobe). “Click” reaction was performed using a final concentration of 40 μM TAMRA-azide, 3 mM CuSO4, 3 mM Tris(3-hydroxypropyltriazolylmethyl)amine (THPTA, Sigma), and 3.7 mM Sodium L-ascorbate (Sigma) in a final volume of 60 μL. The samples were subjected to precipitation.
Precipitation: 1× chloroform, 4× methanol, and 3× water were added to the samples and vortexed thoroughly. The samples were spun down for 10 min at 4 °C, 21,000g. […]

For data set [1], the target named is T1, BTK (Homo sapiens, UniProt Q06187). Kind of data set: BTK activity (autophosphorylation) in Mino cells, Western blot. The format is cell-based. Also noted: endogenous in cells; host or cells: Mino cells. The conditions noted are these: anti-human IgM activation. The method, then: To assess the cellular efficacy of these compounds, we followed the inhibition of BTK autophosphorylation in Mino cells. After 1 h of pre-incubation with the inhibitors and B-cell activation with an anti-IgM antibody, BTK autophosphorylation was followed by Western blot.
T1 sequence (Q06187 whole entry): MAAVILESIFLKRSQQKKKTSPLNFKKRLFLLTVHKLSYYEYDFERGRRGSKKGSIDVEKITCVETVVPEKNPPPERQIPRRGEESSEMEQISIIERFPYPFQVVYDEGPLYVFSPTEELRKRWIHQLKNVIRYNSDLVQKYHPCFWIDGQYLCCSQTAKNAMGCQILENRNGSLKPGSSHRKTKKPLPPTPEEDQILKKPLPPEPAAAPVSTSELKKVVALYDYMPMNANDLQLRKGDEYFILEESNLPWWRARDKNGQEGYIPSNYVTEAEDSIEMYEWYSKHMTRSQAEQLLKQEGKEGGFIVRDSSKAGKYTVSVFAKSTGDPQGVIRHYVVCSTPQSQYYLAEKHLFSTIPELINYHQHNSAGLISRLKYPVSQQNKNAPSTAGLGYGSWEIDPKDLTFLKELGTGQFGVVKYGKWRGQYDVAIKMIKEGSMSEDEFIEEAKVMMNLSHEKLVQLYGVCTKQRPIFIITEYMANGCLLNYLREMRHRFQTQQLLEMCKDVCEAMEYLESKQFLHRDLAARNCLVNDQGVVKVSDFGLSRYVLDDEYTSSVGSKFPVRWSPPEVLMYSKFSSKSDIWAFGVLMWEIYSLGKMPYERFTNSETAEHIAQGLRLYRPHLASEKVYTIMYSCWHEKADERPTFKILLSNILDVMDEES
The cell pellets were subjected to immunoblotting, and Western blots were performed for p-BTK, BTK, and β-actin.
Cell pellets were washed with ice-cold PBS and lysed using RIPA buffer (Sigma, R0278). […] Samples containing 50 μg total protein were prepared with 4× LDS sample buffer (NuPAGE, Thermo Scientific, NP0007) and 20 mM DTT, which were then resolved on a 4–20% Bis–Tris gel (GeneScript SurePAGE, M00657). […] An EZ-ECL Kit (Biological Industries, 20-500-1000) was used to detect HRP activity.

In data set [2] the target is T1, BTK. Kind of data set: Cellular labeling profile of CoLDR probe in Mino cells, in-gel fluorescence. The format is cell-based. Also on record: endogenous in cells; host or cells: Mino cells. The conditions noted are these: 2 h, 100 nM.
Procedure: In addition to the in vitro labeling of BTK by our probe, we also tested its engagement in cells. […] The samples were imaged via gel fluorescence. […] We conducted this cellular labeling experiment at higher concentrations to assess the saturation of BTK binding (Figure S33B).
Precipitation: 1× chloroform, 4× methanol, and 3× water were added to the samples and vortexed thoroughly. The samples were spun down for 10 min at 4 °C, 21,000g. The top layer was aspirated, and the pellet was resuspended in 4× methanol. The sample was vortexed and spun down again for 10 min at 4 °C, 21,000g, the solution was removed, and the pellet was dried for 2 min. The pellet was dissolved in 42 μL of PBS followed by a 14 μL of 4× sample buffer.
Data set [3] is described as follows: GSH consumption assay (LC/MS). To be noted: 100 μM compound, 5 mM GSH, same conditions as ibrutinib.
Procedure: A sample from the reaction mixture was injected to an LC/MS every hour, and we quantified the decrease in starting material over the course of the reaction.
All solvents were bubbled with argon. Reaction mixtures were kept at 10 °C. Every 1 h, 5 μL from the reaction mixture were injected into the LC/MS. The reaction was followed by the peak area of the electrophile normalized by the area of the 4-nitrocyano benzene (i.e., by the disappearance of the starting material). The natural logarithm of the results was fitted to linear regression, and t1/2 was calculated as t1/2 = ln 2/–slope.
The nature of data set [4]: Metabolic stability of sulfopin analogues in liver microsomes. The format is in vitro ADME. As for the experimental part: Next, we examined the buffer stability of the sulfopin sulfamate acetamides in PBS buffer (pH 8; 37 °C). Similar to the model compounds, the chloroacetamide (sulfopin) and sulfonate (4a) warheads show 30 and 15% hydrolysis after 2 days, respectively (Figure S26).
Figure S27: Sulfopin sulfamates show high metabolic stability: Compounds (Sulfopin, 4d, and 4g) were incubated
in liver microsomes and injected to LC/MS/MS at indicated time points. The peak intensities of the compounds were […]

Data set [5] is described as follows: DTNB thiol reactivity assay. The format is physicochemical. The method, then:
The compound 5,5′-dithio-bis(2-nitrobenzoic acid) (DTNB; 50 μM) was incubated with 200 μM tris(2-carboxyethyl)phosphine (TCEP) in 20 mM sodium phosphate buffer (pH 7.4) and 150 mM NaCl for 5 min at room temperature to obtain TNB^–2. […] UV absorbance was acquired every 15 min for 7 h. The assay was performed in a 384-well plate using a Tecan Spark 10 M plate reader. […] Compounds were measured in triplicate. The data were fitted to a second-order reaction equation such that the rate constant (K) is the slope of ln([A][B0]/[B][A0]), where [A0] and [B0] are the initial concentrations of the compound (200 μM) and TNB^–2 (100 μM), respectively, and [A] and [B] are the remaining concentrations as a function of time as deduced from spectrometric measurements. Linear regression using Prism was performed to fit the rate against the first 7 h of measurements.

In data set [6] the target is T2, Pin1 (Homo sapiens, UniProt Q13526).
T2 construct: The catalytic domain of Pin1 (2 μM) in […] and 75 mM NaCl (pH 7.5) was incubated; made in house
T2 sequence (Q13526 52-163 limits assumed): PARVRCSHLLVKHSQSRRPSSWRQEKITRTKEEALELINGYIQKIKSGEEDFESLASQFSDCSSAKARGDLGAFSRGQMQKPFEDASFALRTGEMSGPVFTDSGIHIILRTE
Kind of data set: Determination of KI and Kinact for Pin1. To be noted: Pin1 0.5 μM, 100 mM Tris buffer pH 7.4, 14 °C. Type of data set: binding. The method, then: intensities. Ratios that were above 20 or infinite (due to the sum being zero for the low intensities) were defined as 20. Intensities measured for different peptides containing the same modified cysteine were […]
Pin 1 (500 nM) was incubated at various concentrations of Sulfopin (0.5, 1, 2, 5, 20, 50, 100, 150, […]
in 100 mM Tris buffer at pH 7.4. After the addition, the samples are put at 14 °C. The reaction mixtures, at various time points (indicated in the graph), were injected into the LC/MS. For data analysis, the raw spectra were deconvoluted using a 10000:30000 Da window and 1 Da resolution. The labeling percentage for a compound was determined as the labeling of a specific compound (alone or together with other compounds) divided by the overall detected protein species. The % of unlabelled Pin 1 was plotted against time and fitted to the pseudo-first-order reaction kinetics formula (Figure S24A & C). The obtained rate constants were fitted to the Michaelis-Menten-type saturation curve (Fig. S24B & D) to extrapolate kinact and KI.

The next data set deals with PATU-8988T cells. Briefly: Competitive isoDTB-ABPP in PATU-8988T cells. To be noted: 4 h. Type of data set: cell-based, human. Also on record: dose or concentration left out as unconfirmed. As for the experimental part:
Using our previously reported sulfopin-DTB probe[38] (Figure S29A), we evaluated the cellular engagement of these compounds with Pin1 in OCI-AML2 cells. Compounds 4c, 4d, 4e, and 4g and sulfopin were incubated in OCI-AML2 cells (0.5 and 2.5 μM) followed by lysis and treatment with sulfopin-DTB (1 μM). The lysates were pulled down using streptavidin beads, and Pin1 was imaged by Western blot. […] At 0.5 μM, all of these compounds show only ∼30% Pin1 engagement. […] Both sulfopin and 4d labeled only six peptides with an H/L ratio of >2. […]
The preparation of IsoDTB-ABPP samples was performed essentially as described in Zanon et al.2.
Experiments were conducted in quadruplicates. PATU cells were incubated for 2 h with 5 µM compounds Sulfopin or 3g (or with DMSO), and collected by centrifuge at 300 g for 5 min followed by ice cold PBS wash. For lysis, samples containing 10 million cells were dispersed in 0.5 mL of RIPA buffer (Sigma, R0278), incubated with occasional vortexing for 30 min on ice, followed by centrifugation at 21,000 g for 15 min. […]
sample was diluted to 1.7 mg/mL using PBS. To each sample, 5 µL of 10 mM IA-alkyne was added, followed by 1 h incubation at room temperature in the dark. 10 µL of 5 mM DesThioTag was added (Light for the compound treated samples, heavy for the DMSO-treated samples), followed by 18 µL of CuSO4:THPTA (100 mM), and the click reaction was initiated by addition of 15 µL of 150 mM sodium ascorbate (freshly dissolved in water). The samples were incubated on a rotary shaker for 1 h at room temperature. The compound-treated and DMSO-treated samples were mixed with 4 mL methanol, 1 mL chloroform and 2 mL water on ice, vortexed and centriduged at 3200 g for 10 min at 4°C. The top layer was aspirated, and 3 mL methanol was added, followed by centrifugation and aspiration of the supernatant. The pellets were air dried and stored at -80°C until the following treatment. The pellets were resuspended in 0.3 mL of 8 M urea freshly dissolved in PBS using probe sonication (8 sec total at 40% amplitude, 1 sec on/2 sec off, at room temperature). Following the resuspension, the samples were diluted with 1 mL of PBS. Then each sample was mixed with 1.3 mL of slurry containing 110 µL of streptavidin agarose beads (Thermo Streptavidin Agarose cat # 20349), prewashed, and dispersed in 0.2% IGEPAL. The samples were incubated with rotation for 3 h at room temperature. The beads were pelleted by centrifugation at 2000 g for 2 min, transferred to spin columns, and washed 3 times with 0.1% IGEPAL/PBS, 3 times PBS, and 3 times water.
The beads were then suspended in 8 M Urea/50 mM ammonium bicarbonate, and 15 µL of 31 mg/mL DTT were added, followed by incubation at 37°C for 45 min. […]

Data set [7] deals with T2, Pin1. Briefly: Intact protein MS labeling of Pin1. Type of data set: binding. To be noted: 2 μM Pin1, 2 μM compound, pH 7.5, 1 h, 25 °C. The method, then:
Initially, we incubated these compounds (4a–4g; 2 μM) with Pin1 (2 μM; 50 mM Tris buffer; pH 7.5, 1 h; 25 °C) to check covalent labeling by intact protein MS (Figure 5B,C; Figure S23). Under these conditions, sulfopin labeled 59% as previously reported;[38] the sulfonate (4a) labeled 18%, whereas alkyl sulfamates (4b and 4c) labeled 16 and 56%, respectively. […] We have previously reported that replacing the tert-butyl group in sulfopin by a cyclohexyl increases the labeling along with intrinsic thiol reactivity. Compound 4g contains a cyclohexyl group instead of the tert-butyl and a phenyl sulfamate electrophile and was able to label >95% of Pin1 under these conditions.
Pin1 was expressed and purified as previously reported.[38] The catalytic domain of Pin1 (2 μM) in […] and 75 mM NaCl (pH 7.5) was incubated with 2 μM sulfopin sulfamate (4a–4g) for 1 h at 25 °C.
The reaction mixtures, at room temperature for various times, were injected into the LC/MS. For data analysis, the raw spectra were deconvoluted using a 20,000:40,000 Da (For Pin1, 10,000:30,000) window and 1 Da resolution. The labeling percentage for a compound was determined as the labeling of a specific compound (alone or together with other compounds) divided by the overall detected protein species.

A further data set is described as follows: Buffer stability assay. Type of data set: physicochemical.
Where [8] appears, read: Q13526_C113 (Pin1 Cys113), text: PATU-8988T cells.

Procedure for Buffer stability assay: Reaction mixtures were kept at 37 °C with shaking. After 4 days (unless otherwise mentioned), 5 μL from the reaction mixture were injected into the LC/MS to check the stability of the compounds.

With `C#Cc1ccc(NC(=O)CCl)cc1` [2c], the “proteins labeled under cellular conditions” value in the data set with Mino cells is “labeled the highest number of proteins”.
For `C#CCOS(=O)(=O)N1CCC[C@@H](n2nc(-c3ccc(Oc4ccccc4)cc3)c3c(N)ncnc32)C1` [3j], on BTK [1], the “BTK autophosphorylation / activity after treatment (in words)” value is “BTK remained active”. Further, the “apparent off-targets that ibrutinib did not compete” value at BTK [2] was “three”. For the same molecule, the “BTK labeling in cells (in words)” value at BTK [2] (TAMRA-azide) is recorded as “showed BTK labeling”. In addition, the “reaction with GSH (in words)” value in data set [3] is given as “did not undergo any reaction with GSH”.
For `CC(C)(C)CN(C(=O)COS(=O)(=O)Nc1ccccc1)C1CCS(=O)(=O)C1` (stereo not drawn) [4d], the “metabolic stability (in words)” value in data set [4] is listed as “good metabolic stability”. Besides, the “thiol reactivity compared to sulfopin” value in data set [5] is reported as “lower thiol reactivity than sulfopin”. At Pin1 [6], this molecule gave a negative logarithm of the Ki (pKi) of 4.36. The “isoDTB-ABPP H/L Ratio” value in the data set on PATU-8988T cells (setting [8]) came to 3.057; in the data set on PATU-8988T cells (Q15149_C4494, text: PATU-8988T cells) it was 2.693. Further, on Pin1 [7], the “labeling of Pin1” value is on record as greater than 90%.
Take `CC(C)(C)CN(C(=O)CCl)C1CCS(=O)(=O)C1` (stereo not drawn) [sulfopin, reference compound]: the “metabolic stability (in words)” value in data set [4] is reported as “good metabolic stability”. Further, the pKi at Pin1 [6] was 3.66. Besides, the “isoDTB-ABPP H/L Ratio” value in the data set on PATU-8988T cells (P18031_C32, text: PATU-8988T cells) is reported as 2.941; in the data set on PATU-8988T cells (setting [8]), 11.8257. Also, the “labeling of Pin1” value at Pin1 [7] is recorded as 59%. Also, the “hydrolysis (buffer stability, sulfopin analogues)” value is recorded as 30% in “Buffer stability assay” (200 μM, PBS buffer pH 8, 37 °C for four days) and 30% in “Buffer stability assay” (PBS buffer pH 8, 37 °C, after 2 days).
